Experimental data: ChEMBL document CHEMBL6087488, “Development of the First-in-Class FEM1B-Recruiting Histone Deacetylase Degraders” (J Med Chem, 2025)
One block for each molecule: values may come before it.

Assays:
Histone deacetylase 4 = Histone deacetylase 4 (Homo sapiens, UniProt P56524); assay: Inhibition of human HDAC4 using Boc-Lys(Tfa)-AMC as substrate incubated for 90 mins by fluorescence based assay
MM1.S = assay: Antiproliferative activity against human MM1.S cells assessed as cell viability measured after 72 hrs by CellTiter-Glo cell viability assay; format: functional, cell-based
[1] = molecular target: T1, Protein deacetylase HDAC6 (Homo sapiens, UniProt Q9UBN7); assay: Inhibition of human HDAC6 using ZMAL (Z-(Ac)Lys-AMC) as substrate incubated for 90 mins by fluorescence based assay
T1 sequence (Q9UBN7 whole entry): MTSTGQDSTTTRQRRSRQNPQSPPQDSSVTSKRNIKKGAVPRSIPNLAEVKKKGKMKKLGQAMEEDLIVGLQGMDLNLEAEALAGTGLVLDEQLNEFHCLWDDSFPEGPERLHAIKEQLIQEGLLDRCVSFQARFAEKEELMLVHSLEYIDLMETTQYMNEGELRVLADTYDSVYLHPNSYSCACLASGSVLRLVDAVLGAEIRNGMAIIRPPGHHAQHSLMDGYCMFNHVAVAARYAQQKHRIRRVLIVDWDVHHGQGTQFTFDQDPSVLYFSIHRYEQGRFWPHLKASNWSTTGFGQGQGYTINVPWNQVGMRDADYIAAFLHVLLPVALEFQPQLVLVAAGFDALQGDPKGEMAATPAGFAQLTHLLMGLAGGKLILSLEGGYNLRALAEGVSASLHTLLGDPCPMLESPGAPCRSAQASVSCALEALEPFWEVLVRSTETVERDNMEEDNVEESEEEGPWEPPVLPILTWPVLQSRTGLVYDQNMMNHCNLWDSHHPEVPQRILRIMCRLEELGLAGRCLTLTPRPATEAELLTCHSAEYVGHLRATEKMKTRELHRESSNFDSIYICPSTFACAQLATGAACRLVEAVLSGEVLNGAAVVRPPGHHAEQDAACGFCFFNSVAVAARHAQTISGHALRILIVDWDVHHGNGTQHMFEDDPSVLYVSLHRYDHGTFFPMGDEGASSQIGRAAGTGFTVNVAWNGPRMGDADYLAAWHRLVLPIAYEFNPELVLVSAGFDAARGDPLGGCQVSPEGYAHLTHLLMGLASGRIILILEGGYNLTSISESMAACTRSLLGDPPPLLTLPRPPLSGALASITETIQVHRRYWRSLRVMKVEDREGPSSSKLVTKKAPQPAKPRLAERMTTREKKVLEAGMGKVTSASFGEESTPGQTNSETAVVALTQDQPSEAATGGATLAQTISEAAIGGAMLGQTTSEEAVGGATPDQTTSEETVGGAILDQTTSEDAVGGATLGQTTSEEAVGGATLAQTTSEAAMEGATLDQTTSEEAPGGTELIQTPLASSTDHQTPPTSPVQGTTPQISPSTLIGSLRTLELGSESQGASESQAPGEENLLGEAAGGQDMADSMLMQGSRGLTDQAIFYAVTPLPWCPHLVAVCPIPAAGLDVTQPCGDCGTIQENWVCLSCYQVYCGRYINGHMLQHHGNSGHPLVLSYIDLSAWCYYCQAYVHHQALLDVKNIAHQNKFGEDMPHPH

U-87 MG = assay: Antiproliferative activity against human U-87 MG cells assessed as cell viability measured after 72 hrs incubation by MTT assay; format: functional, cell-based, U-87MG ATCC
[2] = molecular target: Protein fem-1 homolog B/Histone deacetylase 1 (Homo sapiens, UniProt Q13547+Q9UK73); assay: PROTAC activity at FEM1B/HDAC1 in human MM1.S cell lysate assessed as initial degradation measured after 24 hrs by Western immunoassay; format: subcellular
Protein fem-1 homolog B/Histone deacetylase 1, sequence (Q13547 whole entry): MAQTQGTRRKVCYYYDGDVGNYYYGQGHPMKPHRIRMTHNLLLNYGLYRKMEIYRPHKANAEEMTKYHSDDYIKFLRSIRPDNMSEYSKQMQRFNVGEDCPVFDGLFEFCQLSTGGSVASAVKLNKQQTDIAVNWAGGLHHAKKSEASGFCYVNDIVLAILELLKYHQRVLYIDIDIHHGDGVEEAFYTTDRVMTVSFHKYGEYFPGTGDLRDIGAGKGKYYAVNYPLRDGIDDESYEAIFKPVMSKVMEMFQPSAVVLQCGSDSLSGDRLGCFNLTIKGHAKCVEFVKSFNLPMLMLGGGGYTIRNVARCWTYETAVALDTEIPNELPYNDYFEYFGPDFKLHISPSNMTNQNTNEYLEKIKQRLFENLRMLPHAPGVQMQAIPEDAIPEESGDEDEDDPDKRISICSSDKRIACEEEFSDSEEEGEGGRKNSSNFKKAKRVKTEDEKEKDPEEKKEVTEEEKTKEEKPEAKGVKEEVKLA
Protein fem-1 homolog B/Histone deacetylase 1, sequence (Q9UK73 whole entry): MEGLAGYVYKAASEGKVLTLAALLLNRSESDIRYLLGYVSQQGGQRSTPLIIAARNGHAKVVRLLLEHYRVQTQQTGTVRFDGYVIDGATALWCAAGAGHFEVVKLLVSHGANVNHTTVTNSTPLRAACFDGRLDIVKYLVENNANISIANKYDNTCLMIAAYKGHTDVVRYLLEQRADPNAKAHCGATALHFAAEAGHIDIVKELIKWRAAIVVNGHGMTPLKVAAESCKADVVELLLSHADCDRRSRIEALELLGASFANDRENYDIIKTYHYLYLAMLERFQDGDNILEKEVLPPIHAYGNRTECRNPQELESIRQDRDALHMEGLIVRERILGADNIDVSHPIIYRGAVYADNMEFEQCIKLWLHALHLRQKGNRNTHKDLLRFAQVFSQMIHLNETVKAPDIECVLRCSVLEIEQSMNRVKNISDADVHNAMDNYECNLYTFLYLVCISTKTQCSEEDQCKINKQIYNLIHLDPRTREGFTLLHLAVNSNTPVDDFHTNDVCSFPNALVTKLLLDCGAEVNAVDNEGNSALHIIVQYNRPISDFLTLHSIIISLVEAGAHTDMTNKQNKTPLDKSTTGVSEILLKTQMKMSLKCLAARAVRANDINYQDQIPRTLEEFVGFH

Histone deacetylase 2 = Histone deacetylase 2 (Homo sapiens, UniProt Q92769); assay: Inhibition of human HDAC2 using ZMAL (Z-(Ac)Lys-AMC) as substrate incubated for 90 mins by fluorescence based assay
Histone deacetylase 2, sequence (Q92769 whole entry): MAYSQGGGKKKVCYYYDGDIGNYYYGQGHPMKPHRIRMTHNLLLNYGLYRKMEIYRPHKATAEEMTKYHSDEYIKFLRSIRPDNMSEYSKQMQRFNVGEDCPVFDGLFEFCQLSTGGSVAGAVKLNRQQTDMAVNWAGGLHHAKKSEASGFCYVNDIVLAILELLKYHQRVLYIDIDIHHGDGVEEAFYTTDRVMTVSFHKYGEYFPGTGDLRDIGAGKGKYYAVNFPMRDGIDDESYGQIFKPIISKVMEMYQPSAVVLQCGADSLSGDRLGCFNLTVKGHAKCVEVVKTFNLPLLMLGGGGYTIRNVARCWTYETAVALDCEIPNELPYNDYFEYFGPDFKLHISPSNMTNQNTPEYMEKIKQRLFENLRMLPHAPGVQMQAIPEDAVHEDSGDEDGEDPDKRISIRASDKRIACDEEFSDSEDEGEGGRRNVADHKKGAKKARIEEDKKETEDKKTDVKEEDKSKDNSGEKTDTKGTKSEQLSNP

MV4-11 = assay: Antiproliferative activity against human MV4-11 cells assessed as cell viability measured after 72 hrs incubation by MTT assay; format: functional, cell-based; settings: MV4-11, 72 h
Histone deacetylase 1 = Histone deacetylase 1 (Homo sapiens, UniProt Q13547); assay: Inhibition of human recombinant HDAC1 using ZMAL (Z-(Ac)Lys-AMC) as substrate incubated for 90 mins by fluorescence based assay
Histone deacetylase 1, sequence (Q13547 whole entry): as the sequence (Q13547 whole entry) above

MDA-MB-231 = assay: Antiproliferative activity against human MDA-MB-231 cells assessed as cell viability measured after 72 hrs incubation by MTT assay; format: functional, cell-based; settings: MDA-MB-231, 72 h

Histone deacetylase 4, sequence (P56524 whole entry): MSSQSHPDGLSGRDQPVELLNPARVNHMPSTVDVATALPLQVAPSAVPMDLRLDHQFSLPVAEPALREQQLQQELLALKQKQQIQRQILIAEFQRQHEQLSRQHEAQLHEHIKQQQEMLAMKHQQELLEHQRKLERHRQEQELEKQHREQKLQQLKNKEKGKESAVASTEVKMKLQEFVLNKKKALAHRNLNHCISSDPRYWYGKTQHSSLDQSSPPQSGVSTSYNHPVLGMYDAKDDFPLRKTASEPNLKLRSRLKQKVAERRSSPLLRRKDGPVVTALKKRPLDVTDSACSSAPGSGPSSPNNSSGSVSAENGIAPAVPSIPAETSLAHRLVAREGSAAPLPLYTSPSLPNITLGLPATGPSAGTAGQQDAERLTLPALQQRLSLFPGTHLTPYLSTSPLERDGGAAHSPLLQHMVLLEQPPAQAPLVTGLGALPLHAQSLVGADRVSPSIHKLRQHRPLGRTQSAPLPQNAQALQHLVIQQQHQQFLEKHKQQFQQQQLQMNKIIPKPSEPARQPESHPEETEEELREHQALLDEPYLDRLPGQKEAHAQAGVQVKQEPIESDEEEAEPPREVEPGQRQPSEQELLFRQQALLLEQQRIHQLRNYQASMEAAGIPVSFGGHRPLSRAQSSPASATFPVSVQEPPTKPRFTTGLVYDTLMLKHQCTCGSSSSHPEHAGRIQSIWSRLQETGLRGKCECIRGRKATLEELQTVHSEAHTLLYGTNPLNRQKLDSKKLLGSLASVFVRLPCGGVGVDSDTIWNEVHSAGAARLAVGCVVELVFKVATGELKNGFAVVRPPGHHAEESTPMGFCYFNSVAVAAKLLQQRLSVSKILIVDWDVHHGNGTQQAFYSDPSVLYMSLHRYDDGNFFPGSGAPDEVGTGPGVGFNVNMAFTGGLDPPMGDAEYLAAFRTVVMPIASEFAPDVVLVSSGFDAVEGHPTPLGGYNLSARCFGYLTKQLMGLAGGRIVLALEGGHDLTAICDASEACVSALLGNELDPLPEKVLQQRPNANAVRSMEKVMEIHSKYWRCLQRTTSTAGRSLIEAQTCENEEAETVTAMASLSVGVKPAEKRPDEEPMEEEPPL

Structure (SMILES): O=C(CCCCCCC(=O)Nc1ccccc1)NO [VORINOSTAT]
- IC50 (Histone deacetylase 4): Not_active

Structure (SMILES): N#CCCN(C(=O)CCl)c1ccc2c(c1)OCCN2CC(=O)NC[C@H]1CC[C@H](C(=O)Nc2ccc(C(=O)NCCCCCCC(=O)NO)cc2)CC1
- EC50 (MM1.S; Homo sapiens, MM1.S, 72 h): 6.43 µM

Structure (SMILES): N#CCCN(C(=O)CCl)c1ccc2c(c1)OCCN2CC(=O)NCCOCCOCCC(=O)Nc1ccc(C(=O)NCCCCCCC(=O)NO)cc1
- EC50 (MM1.S; Homo sapiens, MM1.S, 72 h): 26.7 µM

Other lines, results leading:

- EC50 (MM1.S; mm1.s): 5.02 µM
Structure (SMILES): N#CCCN(C(=O)CCl)c1ccc2c(c1)OCCN2CC(=O)NCC(=O)Nc1ccc(C(=O)NCCCCCCC(=O)NO)cc1 [listing 1 of 2 here]

- IC50 [1]: 0.009 µM
- IC50 (Histone deacetylase 4; read-out: IC50): 13.3 µM
- EC50 (U-87 MG): 37.4 µM
- DC50 [2]: 0.257 µM
- IC50 (Histone deacetylase 2): 0.156 µM
- EC50 (MV4-11): 0.958 µM
- EC50 (MM1.S; mm1.s): 2.33 µM
- IC50 (Histone deacetylase 1): 0.074 µM
- EC50 (MDA-MB-231): 26.5 µM
Structure (SMILES): N#CCCN(C(=O)CCl)c1ccc2c(c1)OCCN2CC(=O)NCC(=O)Nc1ccc(C(=O)NCCCCCCC(=O)NO)cc1 [listing 2 of 2 here]

- EC50 (MM1.S; Homo sapiens, MM1.S, 72 h): 7.39 µM
Structure (SMILES): N#CCCN(C(=O)CCl)c1ccc2c(c1)OCCN2CC(=O)NCCCCCC(=O)Nc1ccc(C(=O)NCCCCCCC(=O)NO)cc1

- EC50 (MM1.S; Homo sapiens, MM1.S, 72 h): 10.3 µM
Structure (SMILES): N#CCCN(C(=O)CCl)c1ccc2c(c1)OCCN2CC(=O)NCCCC(=O)Nc1ccc(C(=O)NCCCCCCC(=O)NO)cc1
